Assay [1] deals with PTH secretion. The experiment in a line: Evaluation of PTH secretion promoting activity in rat (blood serum PTH, ELISA). Conditions: female F344 rat, oral 3 mg/5 mL/kg, Means ± S.D., n = 3; for Blood Serum PTH (1-84) Concentration, 0 minute: before administration. Type of assay: in vivo. Here is the method: Evaluation of PTH Secretion Promoting Activity in Rat
A 10 to 14-week old female F344 rat (Charles River Japan, Inc.) fasted overnight was anesthetized using ether, and blood serum before the administration was prepared by drawing blood from the jugular vein of the animal. Subsequently, the test compound was orally administered at a dose of 3 mg/5 mL/kg using a solvent (0.5% aqueous methyl cellulose solution containing 5% DMA). Blood was drawn from the jugular vein under ether anesthesia at 5, 15, 30, 60, 120, and 240 minutes after the administration of the test compound, and the blood serum was prepared. The blood serum PTH concentration was measured using rat Intact PTH ELISA kit (manufactured by Immutopics, Inc.).
(An ELISA detects its analyte on a solid surface through an enzyme-linked reagent.)

Assay [2] addresses T1, human calcium-sensing receptor (CaSR) (Homo sapiens, UniProt P41180).
T1 construct: expressed in transfected cells; host or cells: CHO cells (CHO/hCaSR)
T1 sequence (P41180 20-1078): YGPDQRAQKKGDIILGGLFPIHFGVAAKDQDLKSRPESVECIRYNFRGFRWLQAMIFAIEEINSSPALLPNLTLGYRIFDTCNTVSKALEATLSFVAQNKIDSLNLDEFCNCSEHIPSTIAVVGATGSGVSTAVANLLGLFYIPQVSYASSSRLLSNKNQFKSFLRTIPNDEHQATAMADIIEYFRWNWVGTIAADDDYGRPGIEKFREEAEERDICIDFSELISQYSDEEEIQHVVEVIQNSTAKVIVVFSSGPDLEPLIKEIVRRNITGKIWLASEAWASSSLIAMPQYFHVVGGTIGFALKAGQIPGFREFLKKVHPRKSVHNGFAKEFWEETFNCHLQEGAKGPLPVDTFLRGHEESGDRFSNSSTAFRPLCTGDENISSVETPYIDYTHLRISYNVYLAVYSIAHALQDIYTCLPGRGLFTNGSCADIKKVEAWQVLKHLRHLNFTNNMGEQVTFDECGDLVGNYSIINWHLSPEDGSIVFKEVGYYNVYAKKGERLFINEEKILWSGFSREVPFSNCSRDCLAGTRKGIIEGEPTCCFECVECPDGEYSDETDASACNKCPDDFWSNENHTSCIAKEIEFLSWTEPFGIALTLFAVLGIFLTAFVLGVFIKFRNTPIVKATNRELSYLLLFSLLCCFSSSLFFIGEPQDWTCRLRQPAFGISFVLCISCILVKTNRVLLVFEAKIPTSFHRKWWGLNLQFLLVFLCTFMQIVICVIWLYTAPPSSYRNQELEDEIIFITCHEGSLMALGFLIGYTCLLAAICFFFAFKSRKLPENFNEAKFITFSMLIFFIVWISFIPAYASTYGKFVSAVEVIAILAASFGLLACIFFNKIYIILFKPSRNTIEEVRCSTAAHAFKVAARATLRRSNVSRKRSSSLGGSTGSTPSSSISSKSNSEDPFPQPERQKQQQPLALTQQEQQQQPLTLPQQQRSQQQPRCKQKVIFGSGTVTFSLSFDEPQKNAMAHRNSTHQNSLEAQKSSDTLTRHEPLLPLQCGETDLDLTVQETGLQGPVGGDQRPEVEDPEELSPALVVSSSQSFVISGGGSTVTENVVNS
Put plainly: Inhibitory activity on calcium-sensing receptor (CaSR) using intracellular calcium increase as an indicator (FLIPR, CHO/hCaSR). The class given is cell-based. Conditions: CHO/hCaSR cells; intracellular Ca increase induced by CaCl2; test compound 1.05 to 10,000 nM. Here is the method: Evaluation of inhibitory activity on calcium-sensing receptor (CaSR) using intracellular calcium increase as an indicator
The preparation which is prepared by adding CHO/hCaSR to F12 medium (manufactured by Invitrogen) containing 10% fetal bovine serum to have 2×10^5 cells/mL was applied to a 384-well in an amount of 50 μL/well, and then incubated overnight in a CO2 incubator. The culture supernatant was completely removed, the assay buffer (20 mM HEPES, HBSS (Ca and Mg free) containing 2.5 mM probenecid, pH 7.4) containing Calcium 3 (manufactured by Molecular Devices), i.e., a fluorescent intracellular calcium indicator, was added thereto in an amount of 25 μL/well, and the mixture was maintained for 1 hour in a CO2 incubator. Meanwhile, Calcium 3 was prepared according to the protocol enclosed in FLIPR Calcium 3 Assay Kit (manufactured by Molecular Devices). After maintaining it for 1 hour, a solution in which the test compound is prepared to have 2.1 to 20,000 nM (final concentration of 1.05 to 10,000 nM) by an assay buffer was added thereto in an amount of 25 μL/well, and maintained for 15 minutes in a CO2 incubator. Then, the CaCl2 solution prepared to have […] by using the assay buffer was added in an amount of 25 μL/well, and the resulting intracellular Ca increase (i.e., fluorescence intensity) was measured over time using a fluorescence imaging plate reader (FLIPR, manufactured by Molecular Devices). From the data obtained, the difference between the fluorescence intensity before the addition of CaCl2 solution and the maximum fluorescence intensity after the addition of CaCl2 solution was calculated, and the 50% inhibition concentration (IC50) of the test compound was obtained.
(In general: Calcium assays in cells follow changes in intracellular calcium, usually with a dye or a luminescent sensor.)

This note sets out measurements from US8183272B2, “Indanyl compounds” (Daiichi Sankyo Company, Limited, priority 2008, dated 2012).

Structures are written as SMILES. pIC50: −log10 of the molar value.

In the case of `Cc1cccc([C@@H](C)OC[C@H](O)CNC(C)(C)CC2Cc3ccccc3C2)c1CCC(=O)O` [Example 4, 3-{2-[(1R)-1-{[(2R)-3-{[1-(2,3-Dihydro-1H-inden-2-yl)-2-methylpropan-2-yl]amino}-2-hydroxypropyl]oxy}ethyl]-6-methylphenyl}propanoic acid], in assay [1], the “Blood Serum PTH (1-84) Concentration, After 5 minutes” value amounted to 68.2 ± 6.0 pg/mL; the “Blood Serum PTH (1-84) Concentration, After 15 minutes” value worked out at 489.1 ± 106.0 pg/mL; the “Blood Serum PTH (1-84) Concentration, After 30 minutes” value amounted to 538.6 ± 155.1 pg/mL; the “Blood Serum PTH (1-84) Concentration, After 60 minutes” value is reported as 117.0 ± 33.7 pg/mL. Also, in assay [1], the “Blood Serum PTH (1-84) Concentration, After 120 minutes” value is given as 108.8 ± 27.4 pg/mL; the “Blood Serum PTH (1-84) Concentration, After 240 minutes” value was determined as 91.9 ± 24.5 pg/mL; the “Blood Serum PTH (1-84) Concentration, 0 minute” value was 20.5 ± 6.6 pg/mL.
Take `C[C@@H](OC[C@H](O)CNC1(CC2Cc3ccccc3C2)CC1)c1ccccc1CCC(=O)O` [Example 14, 3-{2-[(1R)-1-{[(2R)-3-{[1-(2,3-Dihydro-1H-inden-2-ylmethyl)cyclopropyl]amino}-2-hydroxypropyl]oxy}ethyl]phenyl}propanoic acid]: in assay [2], the pIC50 was not below 5.60. In addition, in assay [1], the “Blood Serum PTH (1-84) Concentration, After 5 minutes” value was 211.6 ± 28.4 pg/mL; the “Blood Serum PTH (1-84) Concentration, After 15 minutes” value came to 471.7 ± 112.8 pg/mL; the “Blood Serum PTH (1-84) Concentration, After 30 minutes” value was 146.1 ± 45.2 pg/mL; the “Blood Serum PTH (1-84) Concentration, After 60 minutes” value is reported as 78.9 ± 5.0 pg/mL. Besides, in assay [1], the “Blood Serum PTH (1-84) Concentration, After 120 minutes” value is reported as 81.8 ± 4.9 pg/mL; the “Blood Serum PTH (1-84) Concentration, After 240 minutes” value is on record as 94.3 ± 15.7 pg/mL; the “Blood Serum PTH (1-84) Concentration, 0 minute” value worked out at 62.8 ± 11.4 pg/mL.
Consider `C[C@@H](OC[C@H](O)CNC(C)(C)CC1Cc2ccccc2C1)c1ccccc1CCCOCC(=O)O` [Example 85, (3-{2-[(1R)-1-{[(2R)-3-{[1-(2,3-Dihydro-1H-inden-2-yl)-2-methylpropan-2-yl]amino}-2-hydroxypropyl]oxy}ethyl]phenyl}propoxy)acetic acid], for which, in assay [2], the pIC50 is not below 5.64.

By pIC50 is commonly meant the negative decadic logarithm of the IC50, by convention in mol/L.
